The test system of the test is Bmi-1 protein. As to the kind of experiment: Sandwich ELISA Assay (Bmi-1 protein level in HT-1080 cells after compound treatment). In kind it is cell-based. The settings on record: Table 1, Bmi-1 sandwich ELISA, read-out: ELISA EC50 value for Bmi-1 protein. In outline:
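Sandwich ELISA quantified Bmi-1 protein against recombinant standard (125–8000 pg/mL), with lysates captured overnight at 4 °C and signal by HRP/TMB at 450 nm (570 nm reference). Lysates came from HT-1080 cells incubated 40–48 h with test compounds in 0.5% DMSO.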
Usually EC50 stands for the concentration needed to bring the measured effect to its halfway point. Take `CCc1nn2ccccc2c1-c1cncc(Nc2ccc(OC(F)F)c(F)c2)n1` [compound 522, N-[4-(difluoromethoxy)-3-fluorophenyl]-6-(2-ethylpyrazolo[1,5-a]pyridin-3-yl)pyrazin-2-amine]: the EC50 lay within 10 to 100 nM.
On to `CCc1nn2ccccc2c1-c1cncc(Nc2ccc(OC(F)(F)F)cc2)n1` [compound 523, 6-(2-ethylpyrazolo[1,5-a]pyridin-3-yl)-N-[4-(trifluoromethoxy)phenyl]pyrazin-2-amine], for which the EC50 is 10 to 100 nM.
For `Cc1nc2ccccc2n1-c1cncc(Nc2ccc(C(F)(F)F)c(CN)c2)n1` [compound 524, N-[3-(aminomethyl)-4-(trifluoromethyl)phenyl]-6-(2-methyl-1H-benzimidazol-1-yl)pyrazin-2-amine], the EC50 lay in the range of 100 to 3000 nM.
For the compound `Cc1nc2ccccc2n1-c1c[n+]([O-])cc(Nc2ccc(C(F)(F)F)cc2)n1` [compound 525, 6-(2-methyl-1H-benzimidazol-1-yl)-N-[4-(trifluoromethyl)phenyl]pyrazin-2-amine 4-oxide], the EC50 lay in the range of 10 to 100 nM.
As for `CCc1nn2ccccc2c1-c1cc(C#N)cc(Nc2ccc(C(F)(F)F)cc2)n1` [compound 526, 2-(2-ethylpyrazolo[1,5-a]pyridin-3-yl)-6-{[4-(trifluoromethyl)phenyl]amino}pyridine-4-carbonitrile], the EC50 is 10 to 100 nM.
For the compound `CCc1nn2ccccc2c1-c1cc(C#N)cc(Nc2ccc(OC(F)F)cc2)n1` [compound 527, 2-{[4-(difluoromethoxy)phenyl]amino}-6-(2-ethylpyrazolo[1,5-a]pyridin-3-yl)pyridine-4-carbonitrile], the EC50 fell in the range of 10 to 100 nM.
Under `CCc1nn2ccccc2c1-c1cc(C#N)cc(Nc2ccc(OC(F)F)c(F)c2)n1` [compound 528, 2-{[4-(difluoromethoxy)-3-fluorophenyl]amino}-6-(2-ethylpyrazolo[1,5-a]pyridin-3-yl)pyridine-4-carbonitrile] stands 10 to 100 nM; under `CCc1nn2ccccc2c1-c1cc(C#N)cc(Nc2ccc(OC(F)(F)F)cc2)n1` [compound 529, 2-(2-ethylpyrazolo[1,5-a]pyridin-3-yl)-6-{[4-(trifluoromethoxy)phenyl]amino}pyridine-4-carbonitrile], 100 to 3000 nM; under `[O-][n+]1cc(Nc2ccc(OC(F)F)cc2)nc(-n2c(C3CC3)nc3cc(F)c(F)cc32)c1` [compound 530, 6-(2-cyclopropyl-5,6-difluoro-1H-benzimidazol-1-yl)-N-[4-(difluoromethoxy)phenyl]pyrazin-2-amine 4-oxide], 10 to 100 nM.
Under `Cc1nc2ccccc2n1-c1c[n+]([O-])cc(Nc2ccc(OC(F)F)cc2)n1` [compound 531, N-[4-(difluoromethoxy)phenyl]-6-(2-methyl-1H-benzimidazol-1-yl)pyrazin-2-amine 4-oxide] stands 10 to 100 nM; under `Cc1nc2ccc(F)cc2n1-c1c[n+]([O-])cc(Nc2ccc(C(F)(F)F)cc2)n1` [compound 532, 6-(6-fluoro-2-methyl-1H-benzimidazol-1-yl)-N-[4-(trifluoromethyl)phenyl]pyrazin-2-amine 4-oxide], 10 to 100 nM; under `[O-][n+]1cc(Nc2ccc(C(F)(F)F)cc2)nc(-n2c(C3CC3)nc3ncc(F)cc32)c1` [compound 533, 6-(2-cyclopropyl-6-fluoro-1H-imidazo[4,5-b]pyridin-1-yl)-N-[4-(trifluoromethyl)phenyl]pyrazin-2-amine 4-oxide], 10 to 100 nM.
Turning to `[O-][n+]1cc(Nc2ccc(C(F)(F)F)cc2)nc(-c2c(C(F)(F)F)nc3ccccn23)c1` [compound 534, 6-[2-(trifluoromethyl)imidazo[1,2-a]pyridin-3-yl]-N-[4-(trifluoromethyl)phenyl]pyrazin-2-amine 4-oxide], the EC50 is 10 to 100 nM.
On to `Cc1nn2ccc(F)cc2c1-c1cncc(Nc2ccc(C(F)(F)F)cc2)n1` [compound 537, 6-(5-fluoro-2-methylpyrazolo[1,5-a]pyridin-3-yl)-N-[4-(trifluoromethyl)phenyl]pyrazin-2-amine], for which the EC50 lay in the range of 10 to 100 nM.
Take `[O-][n+]1cc(Nc2ccc(C(F)(F)F)cc2)nc(-c2c(C(F)(F)F)nc3ccc(F)cn23)c1` [compound 538, 6-[6-fluoro-2-(trifluoromethyl)imidazo[1,2-a]pyridin-3-yl]-N-[4-(trifluoromethyl)phenyl]pyrazin-2-amine 4-oxide]: the 50% effective concentration (EC50) lay within 1 to 10 nM.
As to `CCc1nn2ccc(Cl)cc2c1-c1cncc(Nc2ccc(C(F)(F)F)cc2)n1` [compound 539, 6-(5-chloro-2-ethylpyrazolo[1,5-a]pyridin-3-yl)-N-[4-(trifluoromethyl)phenyl]pyrazin-2-amine], the EC50 fell in the range of 10 to 100 nM.
Take `Cc1nc2ncc(Cl)cc2n1-c1cncc(Nc2ccc(OC(F)F)cc2)n1` [compound 540, 6-(6-chloro-2-methyl-1H-imidazo[4,5-b]pyridin-1-yl)-N-[4-(difluoromethoxy)phenyl]pyrazin-2-amine]: the EC50 is under 1 nM.
For `Cc1nc2ncc(Cl)cc2n1-c1cncc(Nc2ccc(OC(F)F)c(F)c2)n1` [compound 541, 6-(6-chloro-2-methyl-1H-imidazo[4,5-b]pyridin-1-yl)-N-[4-(difluoromethoxy)-3-fluorophenyl]pyrazin-2-amine], the EC50 fell in the range of 1 to 10 nM.
Take `Cc1nc2ncc(Cl)cc2n1-c1cncc(Nc2ccc(OC(F)(F)F)cc2)n1` [compound 542, 6-(6-chloro-2-methyl-1H-imidazo[4,5-b]pyridin-1-yl)-N-[4-(trifluoromethoxy)phenyl]pyrazin-2-amine]: the EC50 lay in the range of 10 to 100 nM.
`CCc1nc2ncc(Cl)cc2n1-c1cncc(Nc2ccc(C(F)(F)F)cc2)n1` [compound 543, 6-(6-chloro-2-ethyl-1H-imidazo[4,5-b]pyridin-1-yl)-N-[4-(trifluoromethyl)phenyl]pyrazin-2-amine]: the EC50 lay in the range of 100 to 3000 nM.
Turning to `CCc1nc2ncc(Cl)cc2n1-c1cncc(Nc2ccc(OC(F)F)cc2)n1` [compound 544, 6-(6-chloro-2-ethyl-1H-imidazo[4,5-b]pyridin-1-yl)-N-[4-(difluoromethoxy)phenyl]pyrazin-2-amine], the EC50 is under 1 nM.
Regarding `CCc1nc2ncc(Nc3ccc(OC(F)F)cc3)cc2n1-c1cncc(Nc2ccc(OC(F)F)cc2)n1` [compound 545, N-[4-(difluoromethoxy)phenyl]-1-(6-{[4-(difluoromethoxy)phenyl]amino}pyrazin-2-yl)-2-ethyl-1H-imidazo[4,5-b]pyridin-6-amine], the EC50 lay in the range of 100 to 3000 nM.
The value for `CCc1nc2ncc(Cl)cc2n1-c1cncc(Nc2ccc(OC(F)F)c(F)c2)n1` [compound 546, 6-(6-chloro-2-ethyl-1H-imidazo[4,5-b]pyridin-1-yl)-N-[4-(difluoromethoxy)-3-fluorophenyl]pyrazin-2-amine] was 1 to 10 nM.
Under `Cc1nc2ncc(Nc3ccc(OC(F)F)cc3)cc2n1-c1cncc(Nc2ccc(OC(F)F)cc2)n1` [compound 547, N-[4-(difluoromethoxy)phenyl]-1-(6-{[4-(difluoromethoxy)phenyl]amino}pyrazin-2-yl)-2-methyl-1H-imidazo[4,5-b]pyridin-6-amine] stands 100 to 3000 nM.
With `CCc1nc2ncc(Cl)cc2n1-c1cncc(Nc2ccc(OC(F)(F)F)cc2)n1` [compound 548, 6-(6-chloro-2-ethyl-1H-imidazo[4,5-b]pyridin-1-yl)-N-[4-(trifluoromethoxy)phenyl]pyrazin-2-amine], the EC50 was 10 to 100 nM.
For the compound `CCc1nc2ncc(Cl)cc2n1-c1cncc(Nc2ccccc2)n1` [compound 549], the EC50 fell in the range of 100 to 3000 nM.
On to `CCc1nc2ncc(Nc3ccc(OC(F)F)c(F)c3)cc2n1-c1cncc(Nc2ccc(OC(F)F)c(F)c2)n1` [compound 550, N-[4-(difluoromethoxy)-3-fluorophenyl]-1-(6-{[4-(difluoromethoxy)-3-fluorophenyl]amino}pyrazin-2-yl)-2-ethyl-1H-imidazo[4,5-b]pyridin-6-amine], for which the EC50 lay within 100 to 3000 nM.
Turning to `COc1ccc(Nc2cncc(-n3c(C)nc4ccc(F)cc43)n2)cc1` [compound 553, 6-(6-fluoro-2-methyl-1H-benzimidazol-1-yl)-N-(4-methoxyphenyl)pyrazin-2-amine], the EC50 lay within 1 to 10 nM.
Under `Cc1nc2ccc(F)cc2n1-c1cncc(Nc2ccc(Cl)cc2)n1` [compound 554, N-(4-chlorophenyl)-6-(6-fluoro-2-methyl-1H-benzimidazol-1-yl)pyrazin-2-amine] stands 10 to 100 nM; under `COc1cccc(Nc2cncc(-n3c(C)nc4ccccc43)n2)c1` [compound 557, N-(3-methoxyphenyl)-6-(2-methyl-1H-benzimidazol-1-yl)pyrazin-2-amine], 100 to 3000 nM.
As to `COc1cccc(Nc2cncc(-n3c(C)nc4ccc(F)cc43)n2)c1` [compound 559, 6-(6-fluoro-2-methyl-1H-benzimidazol-1-yl)-N-(3-methoxyphenyl)pyrazin-2-amine], the EC50 lay in the range of 100 to 3000 nM.
Under `COc1ccc(Nc2cncc(-n3c(C)nc4ccccc43)n2)cc1` [compound 561, N-(4-methoxyphenyl)-6-(2-methyl-1H-benzimidazol-1-yl)pyrazin-2-amine] stands 1 to 10 nM; under `Cc1ccc(Nc2cncc(-n3c(C)nc4ccccc43)n2)cc1` [compound 562, 6-(2-methyl-1H-benzimidazol-1-yl)-N-(4-methylphenyl)pyrazin-2-amine], 1 to 10 nM; under `Cc1ccc(Nc2cncc(-n3c(C)nc4ccccc43)n2)c(N)c1` [compound 563, 4-methyl-N^1-[6-(2-methyl-1H-benzimidazol-1-yl)pyrazin-2-yl]benzene-1,2-diamine], 10 to 100 nM.
On to `Cc1nn2ccccc2c1-c1cncc(Nc2ccccc2)n1` [compound 564, 6-(2-methylpyrazolo[1,5-a]pyridin-3-yl)-N-phenylpyrazin-2-amine], for which the EC50 was 100 to 3000 nM.
For the compound `COc1ccc(Nc2cncc(-c3c(C)nn4ccccc34)n2)cc1` [compound 565, N-(4-methoxyphenyl)-6-(2-methylpyrazolo[1,5-a]pyridin-3-yl)pyrazin-2-amine], the EC50 is under 1 nM.

The values are drawn from patent US10584115B2, “Substituted pyridine and pyrazine BMI-1 inhibitors” (PTC Therapeutics, Inc., priority 2013, dated 2020).
